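A five-concentration, 48-hour dose response in 96-well plates underlies each endpoint, interpolated linearly between surrounding concentrations. Here, GI50 denotes the concentration required for 50% inhibition of growth.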 Calls of active or inactive are those of the source. No stated cut-off is given here; in the data, active = GI50 up to about 1.1 µM and inactive = higher.
Columns and labels:
Experiment in all cases: DTP human tumour cell line panel, 48 h
[1] = tested on: SF-295
[2] = tested on: OVCAR-3
[3] = tested on: SNB-19
[4] = tested on: NCI-H226
[5] = tested on: OVCAR-5
[6] = tested on: RPMI-8226
[7] = tested on: HOP-62
[8] = tested on: IGROV-1
[9] = tested on: SK-MEL-2
[10] = tested on: K562
[11] = tested on: RXF 393
[12] = tested on: UACC-62
[13] = tested on: CCRF-CEM
[14] = tested on: T47D
[15] = tested on: A549
[16] = tested on: UO-31
[17] = tested on: UACC-257
[18] = tested on: PC-3
[19] = tested on: OVCAR-8
[20] = tested on: 786-0
[21] = tested on: BT-549
[22] = tested on: SF-268
[23] = tested on: SK-OV-3
[24] = tested on: MOLT-4
[25] = tested on: SK-MEL-5
[26] = tested on: HT-29
[27] = tested on: Hs-578T
[28] = tested on: ACHN
[29] = tested on: HL-60
[30] = tested on: SK-MEL-28
[31] = tested on: COLO 205
[32] = tested on: MDA-MB-435
[33] = tested on: HCC 2998
[34] = tested on: DU-145
[35] = tested on: HCT-15
[36] = tested on: MDA-MB-231
[37] = tested on: NCI-H522
[38] = tested on: EKVX
[39] = tested on: KM12
[40] = tested on: M14
[41] = tested on: HCT-116
[42] = tested on: OVCAR-4
[43] = tested on: NCI/ADR-RES
[44] = tested on: U-251
[45] = tested on: SN12C
[46] = tested on: SNB-75
[47] = tested on: MCF7
[48] = tested on: CAKI-1
[49] = tested on: NCI-H23
[50] = tested on: HOP-92
[51] = tested on: LOX IMVI
[52] = tested on: MDA-N
[53] = tested on: SW-620
[54] = tested on: Malme-3M
[55] = tested on: SF-539
[56] = tested on: TK-10
[57] = tested on: NCI-H460

Measured: GI50

CCOC(=O)C(NC(=O)c1ccccc1)(Nc1cc(C)on1)C(F)(F)F (stereo not drawn)
> 100 µM: [35]
inactive: [1] > 100 µM | [2] > 100 µM | [3] > 100 µM | [4] > 100 µM | [5] > 100 µM | [6] > 100 µM | [7] > 100 µM | [8] > 100 µM | [9] > 100 µM | [10] > 100 µM | [11] > 100 µM | [12] > 100 µM | [13] > 100 µM | [14] > 100 µM | [15] > 100 µM | [16] > 100 µM | [17] > 100 µM | [18] > 100 µM | [19] > 100 µM | [20] > 100 µM | [21] > 100 µM | [22] > 100 µM | [23] > 100 µM | [24] > 100 µM | [25] > 100 µM | [26] > 100 µM | [27] > 100 µM | [28] > 100 µM | [29] > 100 µM | [30] > 100 µM | [31] > 100 µM | [32] > 100 µM | [33] > 100 µM | [34] > 100 µM | [36] 10.9 µM | [37] > 100 µM | [38] > 100 µM | [39] > 100 µM | [40] > 100 µM | [41] > 100 µM | [42] > 100 µM | [43] > 100 µM | [44] > 100 µM | [45] > 100 µM | [46] > 100 µM | [47] > 100 µM | [48] > 100 µM | [49] > 100 µM | [50] > 100 µM | [51] > 100 µM | [52] > 100 µM | [53] > 100 µM | [54] > 100 µM | [55] > 100 µM | [56] > 100 µM

CC(C)(C)OC(=O)N1CCC[C@H]1CSC[C@@H]1CCCN1C(=O)OC(C)(C)C
27.9 µM: [35]
inactive: [1] 30.8 µM | [2] 22.4 µM | [3] 25.4 µM | [5] 34.2 µM | [7] 41.5 µM | [8] 43.4 µM | [9] 18.3 µM | [10] 24.5 µM | [11] 24.8 µM | [12] 21.7 µM | [13] 24.2 µM | [14] 20.6 µM | [15] 24.4 µM | [16] 26.2 µM | [17] 28.8 µM | [18] 26.9 µM | [19] 29.3 µM | [20] 38.8 µM | [21] 23.8 µM | [22] 39.4 µM | [23] 69.5 µM | [24] 16.7 µM | [25] 18.7 µM | [26] 17.8 µM | [27] 27 µM | [28] 32.2 µM | [30] 24.6 µM | [31] 16.8 µM | [32] 20.7 µM | [33] 39.8 µM | [34] 44 µM | [36] 31.5 µM | [37] 24 µM | [38] 32.8 µM | [39] 20.9 µM | [40] 18.6 µM | [41] 25.6 µM | [42] 28.7 µM | [43] 18.7 µM | [44] 29.7 µM | [45] 32.2 µM | [46] 23.9 µM | [47] 28.6 µM | [48] 32.4 µM | [49] 20.7 µM | [50] 8.43 µM | [51] 17.6 µM | [52] 29.4 µM | [53] 30.3 µM | [54] 25.6 µM | [57] 34.3 µM | [56] 56.9 µM

Cc1ccc(-n2nnc(C#N)c2O)cc1
inactive: [1] > 100 µM | [2] > 100 µM | [3] > 100 µM | [4] > 100 µM | [5] > 100 µM | [6] > 100 µM | [7] > 100 µM | [8] > 100 µM | [9] > 100 µM | [10] > 100 µM | [11] > 100 µM | [12] > 100 µM | [13] > 100 µM | [14] > 100 µM | [15] > 100 µM | [16] > 100 µM | [17] > 100 µM | [18] > 100 µM | [19] > 100 µM | [20] > 100 µM | [21] > 100 µM | [22] > 100 µM | [23] > 100 µM | [24] > 100 µM | [25] > 100 µM | [26] > 100 µM | [27] > 100 µM | [28] > 100 µM | [29] > 100 µM | [30] > 100 µM | [31] > 100 µM | [32] > 100 µM | [33] > 100 µM | [34] > 100 µM | [36] > 100 µM | [37] > 100 µM | [38] > 100 µM | [39] > 100 µM | [40] > 100 µM | [41] > 100 µM | [42] > 100 µM | [43] > 100 µM | [44] > 100 µM | [45] > 100 µM | [46] > 100 µM | [47] > 100 µM | [48] 93.3 µM | [49] > 100 µM | [52] > 100 µM | [53] > 100 µM | [54] > 100 µM | [57] > 100 µM | [56] > 100 µM
> 100 µM: [35]
